# Measurements reported in patent publication US20030206898A1, “Use of anti-TNFalpha antibodies and another drug” (priority 2002, published 2003).
# “And” between values parts separate entries of the source, which are not always exact repeats. Identical values can stand only once. “Also recorded” adds a separate entry of the source.
# How the values were obtained:
# [1] = system: patients with rheumatoid arthritis (RA); assay: Multicenter, randomized, double-blind, placebo-controlled study of D2E7 40 mg sc every other week added to current anti-rheumatic therapies: efficacy (ACR response); type: in vivo, human
# Procedure: (§1) A study was designed and conducted to investigate the safety and efficacy of D2E7 40 mg administered every other week to patients with RA whose disease was not adequately treated with their current anti-rheumatic therapies (including accepted DMARDs, NSAIDs, or steroids); and was a multicenter, randomized, double-blind, placebo-controlled study in which D2E7 was subcutaneously (sc) administered every other week for up to 24 weeks at a dosage of 40 mg to patients with rheumatoid arthritis (RA) whose disease was not adequately treated with their current anti-rheumatic therapies. Anti-rheumatic therapies permitted for use during the study included accepted disease-modifying anti-rheumatic drugs (DMARDs), non-steroidal anti-inflammatory drugs (NSAIDs), or steroids. Despite using anti-rheumatic therapies, patients must have had active disease documented at both the screening and baseline visits. Doses of DMARDs, as well as concomitant prednisone (<10 mg daily) and NSAIDs, were required to be stable for at least 28 days prior to screening. Additionally, patients using azathioprine and/or cyclosporine discontinued these therapies and underwent a 28-day washout period before screening. At the baseline visit, patients were randomized to D2E7 or placebo and this signified the start of the 24-week placebo-controlled period. Patients were examined at Weeks 2, 4, 8, 12, 16, 20 and 24 of the study.
# Patients were inadequately treated with their current anti-rheumatic therapies and had active RA, defined as ≧6 swollen joints and ≧9 tender joints. Additionally, patients using glucocorticoids were allowed into the study if the dose was equivalent to <10 mg/day prednisone and had remained unchanged for at least 28 days.
# D2E7 was supplied in 2-mL glass vials (the concentration of D2E7 in each vial was 25 mg/mL (ie, 40 mg/1.6 mL)), each containing 40 mg D2E7/1.6 mL solution for injection. D2E7 was manufactured and supplied by Ebewe Arzneimittel GmbH, in Unterach, Austria. McKesson, HBOC Biosciences, in Rockville, Md., USA, packaged, labeled, stored and distributed D2E7 to the investigators at each site for this study. D2E7 was self-administered as a single sc injection of 40 mg every other week for a period of 24 weeks. The concentration of study drug was 25 mg/mL. Placebo/1.6 mL (citrate-phosphate buffer solution without D2E7) was self-administered as a single sc injection every other week for a period of 24 weeks.
# Patients continued to receive their pre-study dose of anti-rheumatic therapies. Anti-rheumatic therapies permitted for use during the study included DMARDs (hydroxychloroquine, leflunomide, methotrexate, parenteral gold, oral gold and sulfasalazine, or any combination of these or other DMARDs), NSAIDs and steroids. Doses of these DMARDs as well as concomitant prednisone (<10 mg daily) and NSAIDs must have been stable for at least 28 days prior to screening.
# Efficacy endpoints included: ACR20 response at Week 24; ACR50 and ACR70 at Week 24; AUC (area under the curve) of ACR20, ACR50 and ACR70 from baseline to Week 24; time to first response for ACR20, ACR50 and ACR70; numeric ACR (ACR—N); change from baseline to Week 24 in components of the ACR response criteria (tender joint count [TJC], swollen joint count [SJC], patient assessment of pain, patient and physician global assessments of disease activity, HAQ and C-reactive protein [CRP]); change from baseline to Week 24 in physical function as measured by SF-36, health utilities index (HUI), functional assessment of chronic illness therapy (FACIT) fatigue scale; Euro-QoL questionnaire; multidimensional assessment of fatigue (MAF) scale; subject summary survey; incidence and time to dose increases in background DMARD and/or steroid therapy; institution of new DMARD therapy for lack of clinical response; rheumatoid factor (RF); and morning stiffness.
# Adverse events were summarized by frequency, percentage, as well as the rate per 100 patient-years. […]
# [2] = system: patients with rheumatoid arthritis (RA); assay: Same RA study: safety / adverse events; type: in vivo, human
# Procedure: as §1, with “Additionally, patients using azathioprine and/or cyclosporine discontinued these therapies and underwent a 28-day washout period before screening. At the baseline visit, patients were randomized to D2E7 or placebo and this signified the start of the 24-week placebo-controlled period. Patients were examined at Weeks 2, 4, 8, 12, 16, 20 and 24 of the study.” left out
# Adverse events were summarized by frequency, percentage, as well as the rate per 100 patient-years. […] All other efficacy variables were summarized descriptively (statistical characteristics, frequencies, percentages, confidence intervals) and analyzed by exploratory two-sided statistical tests. […]
# [3] = Week 2, full analysis set, excluding Site #7
# [4] = Week 4, full analysis set, excluding Site #7
# [5] = Week 8, full analysis set, excluding Site #7
# [6] = Week 12, full analysis set, excluding Site #7
# [7] = Week 16, full analysis set, excluding Site #7
# [8] = Week 20, full analysis set, excluding Site #7
# [9] = Week 24, full analysis set, excluding Site #7
# [10] = Week 24, subgroup Three or more DMARDs
# [11] = Week 24, subgroup concomitant Antimalarial
# [12] = Week 24, subgroup concomitant Leflunomide
# [13] = Week 24, subgroup concomitant Methotrexate
# [14] = Week 24, subgroup concomitant Sulfasalazine
# [15] = through Week 24, full analysis set, excluding Site #7
substance,measurement,setting,value
"D2E7: recombinant, neutralizing human anti-hTNFα antibody; VL region SEQ ID NO: 1, VH region SEQ ID NO: 2","ACR50 response, patients responding","[1]; LOCF Week 24, N = 315",95 (30.2) N (%)
same,"ACR70 response, patients responding","[1]; LOCF Week 24, N = 315",48 (15.2) N (%)
same,"ACR-N, Mean ± SD","[1]; LOCF Week 24, N = 315",21.2 ± 55.3
same,Time to response ACR20: patients responding for the first time,[1]; [3],106 (33.7) N (%)
same,Time to response ACR50: patients responding for the first time,[1]; [3],31 (9.8) N (%)
same,Time to response ACR70: patients responding for the first time,[1]; [3],9 (2.9) N (%)
same,Time to response ACR20: patients responding for the first time,[1]; [4],51 (16.2) N (%)
same,Time to response ACR50: patients responding for the first time,[1]; [4],31 (9.8) N (%)
same,Time to response ACR70: patients responding for the first time,[1]; [4],12 (3.8) N (%)
same,Time to response ACR20: patients responding for the first time,[1]; [5],52 (16.5) N (%)
same,Time to response ACR50: patients responding for the first time,[1]; [5],34 (10.8) N (%)
same,Time to response ACR70: patients responding for the first time,[1]; [5],12 (3.8) N (%)
same,Time to response ACR20: patients responding for the first time,[1]; [6],17 (5.4) N (%)
same,Time to response ACR50: patients responding for the first time,[1]; [6],20 (6.3) N (%)
same,Time to response ACR70: patients responding for the first time,[1]; [6],18 (5.7) N (%)
same,Time to response ACR20: patients responding for the first time,[1]; [7],13 (4.1) N (%)
same,Time to response ACR50: patients responding for the first time,[1]; [7],20 (6.3) N (%)
same,Time to response ACR70: patients responding for the first time,[1]; [7],18 (5.7) N (%)
same,Time to response ACR20: patients responding for the first time,[1]; [8],12 (3.8) N (%)
same,Time to response ACR50: patients responding for the first time,[1]; [8],9 (2.9) N (%)
same,Time to response ACR70: patients responding for the first time,[1]; [8],7 (2.2) N (%)
same,"ACR20 response, patients responding","[1]; Week 24, 40 mg sc every other week, N = 315",167 (53.0) N (%)
same,ACR20 response (primary efficacy endpoint),"[1]; Week 24, D2E7 added to current anti-rheumatic therapies",53.0%
same,"ACR50 response, patients responding","[1]; Week 24, N = 315",92 (29.2) N (%) and 92 (29.2)^a N (%)
same,"ACR70 response, patients responding","[1]; Week 24, N = 315",47 (14.9) N (%) and 47 (14.9)^a N (%)
same,"ACR-N, Mean ± SD","[1]; Week 24, N = 315",20.3 ± 55.2
same,Time to response ACR20: patients responding for the first time,[1]; [9],3 (1.0) N (%)
same,Time to response ACR50: patients responding for the first time,[1]; [9],10 (3.2) N (%)
same,Time to response ACR70: patients responding for the first time,[1]; [9],8 (2.5) N (%)
same,ACR20 % Response,"[1]; Week 24, subgroup No DMARD",50.0%
same,ACR50 response,"[1]; Week 24, subgroup No DMARD",27.8%
same,ACR70 response,"[1]; Week 24, subgroup No DMARD",18.5%
same,"ACR-N, Mean ± SD","[1]; Week 24, subgroup No DMARD",12.8 ± 68.2
same,ACR20 % Response,"[1]; Week 24, subgroup One DMARD",55.4%
same,ACR50 response,"[1]; Week 24, subgroup One DMARD",31.0%
same,ACR70 response,"[1]; Week 24, subgroup One DMARD",16.3%
same,"ACR-N, Mean ± SD","[1]; Week 24, subgroup One DMARD",22.8 ± 56.0
same,ACR20 % Response,"[1]; Week 24, subgroup Other DMARDs",52.0%
same,ACR50 response,"[1]; Week 24, subgroup Other DMARDs",24.0%
same,ACR70 response,"[1]; Week 24, subgroup Other DMARDs",16.0%
same,"ACR-N, Mean ± SD","[1]; Week 24, subgroup Other DMARDs",25.3 ± 33.9
same,ACR20 % Response,[1]; [10],45.5%
same,ACR50 response,[1]; [10],18.2%
same,ACR70 response,[1]; [10],9.1%
same,"ACR-N, Mean ± SD",[1]; [10],20.1 ± 37.2
same,ACR20 % Response,"[1]; Week 24, subgroup Two DMARDs",50.0%
same,ACR50 response,"[1]; Week 24, subgroup Two DMARDs",27.3%
same,ACR70 response,"[1]; Week 24, subgroup Two DMARDs",9.1%
same,"ACR-N, Mean ± SD","[1]; Week 24, subgroup Two DMARDs",19.5 ± 42.3
same,ACR20 % Response,[1]; [11],50.7%
same,ACR50 response,[1]; [11],29.3%
same,ACR70 response,[1]; [11],12.0%
same,"ACR-N, Mean ± SD",[1]; [11],20.0 ± 45.5
same,ACR20 % Response,[1]; [12],33.3%
same,ACR50 response,[1]; [12],14.3%
same,ACR70 response,[1]; [12],0.0%
same,"ACR-N, Mean ± SD",[1]; [12],−0.5 ± 77.5
same,ACR20 % Response,[1]; [13],56.7%
same,ACR50 response,[1]; [13],30.9%
same,ACR70 response,[1]; [13],15.2%
same,"ACR-N, Mean ± SD",[1]; [13],26.5 ± 42.3
same,ACR20 % Response,[1]; [14],58.6%
same,ACR50 response,[1]; [14],34.5%
same,ACR70 response,[1]; [14],17.2%
same,"ACR-N, Mean ± SD",[1]; [14],21.4 ± 53.9
same,"Subgroup analyses of ACR20, ACR50, ACR70, ACR-N and their AUC","[1]; concomitant methotrexate, antimalarials, sulfasalazine, other DMARDs, or 0, 1, 2, ≧3 DMARDs, vs placebo",greater improvement; also recorded: higher response compared to placebo
same,Improvement in RA in patients inadequately treated with existing DMARD therapies,[1]; in vivo,significant improvement
same,Time to response ACR20: Non-responder,[1]; [15],61 (19.4) N (%)
same,Time to response ACR50: Non-responder,[1]; [15],160 (50.8) N (%)
same,Time to response ACR70: Non-responder,[1]; [15],231 (73.3) N (%)
same,"Time to response and AUC for ACR20, ACR50, ACR70; AUC for ACR-N; Euro-QoL, RF, MAF scale",[1]; vs placebo,improvement in therapeutic response over placebo
same,Tolerability when added to existing DMARD therapies,"[2]; 40 mg sc every other week, up to 24 weeks",generally well-tolerated
same,Safety alone or in combination with other DMARDs,[2]; dose of 40 mg,safe
